Measured values taken from patent EP4527906A1, “OXIDATION RESISTANT COMPOSITIONS OF DINAHYDROHEXITOLS CONTAINING BENZOPHENONE OR ITS DERIVATIVES” (ROQUETTE FRERES, priority 2023, dated 2025).

Columns and labels:
Assay type in all cases: physicochemical
[1] = PetroOxy test: induction time (resistance to oxidation)
From the text: The resistance of compositions according to the invention to oxidation may indeed be characterized by this measurement called the "PetroOxy test" which consists in measuring over time the pressure inside a cell loaded with a sample of composition exposed to an initial pressure of dioxygen and a constant temperature. The protocol of this test is described below after.
(§1) The method hereafter is described for isosorbide as the chemical compound having at least one heterocycle, and is also applicable to any chemical compound having at least one heterocycle.
3 grams of a purified 50 wt% dry matter isosorbide solution in distilled water with or without the addition of antioxidant are weighed precisely in a glass cup and then placed in the hermetic enclosure of the measuring device "PetroOxy" model 13-3002 from Petrotest, now Anton Paar GmbH. The air present in the cell is purged 3 times at room temperature with pure oxygen via a pressurized cylinder (Alphagas, purity >99.5%). The temperature and working pressure of pure oxygen is then set at 120°C and 700 kPa (7 bars) of oxygen. The pressure is continuously monitored during the experiment. The decrease in pressure in the test chamber is due to oxygen consumption during oxidation reactions of the sample studied. The variation in relative pressure during the experiment makes it possible to determine the time after which the sample begins its degradation by oxidation, which is called induction time, also referred as "OIT", under the test conditions.
The induction time of the sample is determined as follows:
The relative pressure of oxygen consumption is given by the relation (Pmax -Pt)/Pmax. Pmax is the maximum pressure attained by the system during the measurement, corresponding to the maximum pressure at the beginning of time, and Pt is the pressure as a function of time when oxygen is consumed. The induction time of the sample is given by the inflection point of the oxygen consumption curve, i.e. the intersection of the two linear domains as shown on figure Fig.1.
The longer the induction time, the greater the oxidation resistance of the sample. To calculate precisely this parameter, a calculation method by linear regression between the two-line segments before and after the inflection point is performed.

[2] = Thermal treatment test: yellow coloration index after heating; details: for Yellow coloration index After-Before: difference after minus before thermal test, 100 ppm antioxidant; for Yellow coloration index after thermal test: isosorbide solution with 100 ppm antioxidant, 245°C for 40 minutes under nitrogen
Description: (§2) The yellow coloration index, expressed in YID units, was measured using a Colorflex EZ from Hunterlab according to ASTM E313. The spectrophotometer is a sealed optics, 256-elements diode array, having a 400-700 nm spectral range and a high-resolution concave holographic grating. 55 grams of composition are placed at 65°C, in a 64 mm diameter cylindric cell including a ring and white disk cap. The coloration of the composition was measured as a liquid at 65°C.
as §1
The thermal stability of compositions of isosorbide, was studied according to the following protocol: 70 g of a 80 wt% solution of isosorbide in water was placed in a three-necked round flask and inerted with high purity nitrogen (purity >99.9%) during 10 minutes at a flowrate of around 2000 mL/min. The product was then heated at 245°C using an oil bath for 40 minutes under a 500 mL/min nitrogen flowrate. Then the product was cooled down to 80°C under the same nitrogen flowrate and yellow coloration measurement (YID value) was measured immediately.
Coloration before and after "thermal treatment" as well as their difference is related to the product thermal stability, i.e. to the sensitivity of the product to oxidation.

[3] = Yellow coloration index measurement (ASTM E313), before thermal treatment; details: isosorbide solution with 100 ppm antioxidant, measured as a liquid at 65°C
Description: as §2

[4] = isosorbide aqueous solution with 100 ppm antioxidant, 120°C and 7 bars of oxygen
[5] = listed as 4,4'-dihydroxy-benzophenone

Structure (SMILES) | Induction time [1, 4] [h] | Yellow coloration index After-Before [2] [YID] | Yellow coloration index after thermal test [2] [YID] | Yellow coloration index before thermal test [3] [YID] | Yellow coloration index after thermal test [2, 5] | Yellow coloration index before thermal test [3, 5] | Induction time (hours) ([1]; isosorbide aqueous solution with 100 ppm antioxidant, 120°C and 7 bars of oxygen, listed as 2-hydroxy-4-methoxy benzophenone) | Yellow coloration index after thermal test ([2]; listed as 2-hydroxy-4-methoxy-benzophenone) | % versus no antioxidant ([1]; change of induction time versus isosorbide solution without antioxidant (3.5 h), 100 ppm antioxidant) | Yellow coloration index after thermal test ([2]; listed as benzophenone)
O=C(c1ccccc1)c1ccccc1 [Sample 2.1, Benzophenone] | 3.8 | 6.4 | 7.7 | 1.3 |  |  |  |  | about 9% | lower than 10 YID
O=C(c1ccc(O)cc1)c1ccc(O)cc1 [Sample 2.2, 4,4'-dihydroxy-benzophenone] | 3.9 | 5.1 | 9.3 | 4.2 | lower than 10 YID | lower than 10 YID |  |  |  | 
COc1ccc(C(=O)c2ccccc2)c(O)c1 [Sample 2.3, 2-hydroxy-4-methoxybenzophenone] | 4.6 | 3.9 | 6.1 | 2.2 |  |  | around 4,6 hours | below 7 YID |  | 

Now from value to molecule, other results behind:

Induction time [1, 4] [h] | Yellow coloration index After-Before [2] [YID] | Yellow coloration index after thermal test [2] [YID] | Yellow coloration index before thermal test [3] [YID] | Yellow coloration index after thermal test [2, 5] | Yellow coloration index before thermal test [3, 5] | Induction time (hours) ([1]; isosorbide aqueous solution with 100 ppm antioxidant, 120°C and 7 bars of oxygen, listed as 2-hydroxy-4-methoxy benzophenone) | Yellow coloration index after thermal test ([2]; listed as 2-hydroxy-4-methoxy-benzophenone) | Structure (SMILES) | % versus no antioxidant ([1]; change of induction time versus isosorbide solution without antioxidant (3.5 h), 100 ppm antioxidant) | Yellow coloration index after thermal test ([2]; listed as benzophenone)
5.2 | 37 | 49.3 | 12.3 |  |  |  |  | COc1ccc(C(=O)c2ccccc2O)c(O)c1 [Sample 2.4, 2,2'-dihydroxy-4-methoxybenzophenone] |  | 
 | 5.2 | 14.3 | 9.1 |  |  |  |  | CCCOC(=O)c1cc(O)c(O)c(O)c1 [Sample 3, Propyl gallate, reference compound] |  | 
